Counter-ions that a name gives are not always drawn. Like-named read-outs stand apart in the source and are kept apart here.
Legend:
[1] = tested on: mature stage V gametocytes (NF54 strain); assay: High-throughput screening: killing effect by MitoTracker staining, primary screening at 1.11 µM and dose-response analysis; format: cell-based, Plasmodium falciparum; conditions: stage V gametocytes NF54, 24 h, dose-response analysis, N/A = not active in dose-response analysis, read-out: Killing IC50
Description: (§1) Screening was conducted as previously described. Briefly, mature stage V gametocytes (NF54 strain) were cultured in vitro, then exposed to the explored compounds and filtered thereafter through layers of microspheres (microsphiltration)[25],[28]. Stiffening activity was determined by comparing gametocytemia up and downstream from the microsphere layers after filtration of drug-exposed gametocytes in 384-well plates using a vacuum manifold. Gametocytemia was assessed using DNA (Sybr Green) and erythrocyte membrane (CellMask) staining. Killing effect was assessed by MitoTracker staining. We screened two small libraries, specifically the Pathogen Box from the Medicine for Malaria Venture and the Kinase Inhibitors Box from GSK (400 and 350 compounds, respectively, Fig. 1A, B), and furthermore the larger ReFrame repurposing library (12,805 compounds, Fig. 1C).
(§2) The Pathogen Box library (400 compounds, provided by MMV-Medicine for Malaria Ventures, Geneva, Switzerland), the Kinase Inhibitors Box library (350 compounds, provided by GSK-Glaxo SmithKline DDW Unit, Tres Cantos, Spain), and the ReFrame library (12,805 compounds provided by the California Institute for Biomedical Research-Calibr, La Jolla, CA, USA) were used according to the providers’ instructions. DMSO-solubilized compounds (10 mM stock concentration) were loaded in 384-well plates (Seahorse, cat. no. 201035−100). Two columns were left empty for the controls. For each compound, 5 nL were pre-spotted in a single well to reach a final concentration of 1.11 μM. The final volume for each well was 45 μl. Controls were prepared as follows: 22.5 nL of DMSO were loaded in 16 wells as negative controls (0.05% final concentration); 22.5 nL of NITD609 (provided by MMV, Geneva, Switzerland) 1 mM were loaded in 8 wells (0.5 μM final concentration), 17 nL of Calyculin A (Sigma, cat. no. C5552) […] were loaded in 6 wells (75 nM final concentration) and 225 nL of Gentian Violet (MolPort, cat. no. 002-133-551) 10 mM were loaded in the remaining 2 wells (50 μM final concentration). Plates were prepared in triplicate for the Pathogen Box and sextuplicate for the Kinase Inhibitors Box.
(§3) Plasmodium falciparum NF54 strain parasites (used for screening campaign) were cultured at 4% hematocrit in RBCs from informed blood donors (blood group A) as previously described. Parasites were taken from the -80 °C freezer, then rapidly melt for 1 minute in a 37 °C water bath. A saline solution was gently added to avoid the lysis. Firstly, NaCl dissolved at 12% in distilled water (1/5 of the volume measured in the cryovial) and then NaCl dissolved at 1.6% (9 times the cryovial’s volume). After that, fresh RBCs were added to allow parasites re-growth. Infected RBCs were kept in RPMI medium (Sigma-Aldrich, cat. no. R4130), supplemented with 10% of decomplemented human serum, hypoxanthine 50 mg/l (Sigma-Aldrich, cat. no. H9636). Biobank of Castilla y Leon and Centro de Transfusiones de Madrid as providers of human red blood cell concentrates. The production of gametocytes was induced from a 0.5% ring-stage parasitemia (day 0). Medium was changed daily to induce gametocytes differentiation, as previously described. At day 17, gametocytes were concentrated using a density gradient medium (NycoPrep 1.077, Progen cat. no. 1114550)[27]. Parasitemia was adjusted by FACS (SYBR-Green and MitoTracker double staining, 3–5% targeted). Hematocrit was adjusted to 0.5% by adding fresh RBCs and controlled by manual counting in a Neubauer chamber (Celeromics, cat. no. 717810). Finally, the gametocyte suspension was poured (45 μL/well) into the compound-containing 384-well microplate, then incubated 24 hours both for the screening campaign and the dose-response analysis. Both asexual and sexual stages were cultivated in RPMI 1640 supplemented with 25 mM HEPES, 50 mg/L hypoxanthine, 50 μg/mL gentami-cin, 10% pooled heat-inactivated human serum (A^+).

[2] = tested on: HEK293T; conditions: cited from earlier work
[3] = tested on: HepG2; conditions: cited from earlier work
[4] = tested on: P.falciparum Dd2; design: method as in previously published reports (Table S1 legend); conditions: 72 h; results in previous assays; ref previously published reports (Table S1 legend); read-out: 72-h Dd2-SybrGreen PBFS assay IC50; cited from earlier work
[5] = tested on: mature stage V gametocytes (NF54 strain); assay: microbe, parasite or virus in culture; format: cell-based, Plasmodium falciparum; conditions: read-out: Stiffening IC50 (retention)
Description: as §1, §2, §3

[6] = Hit scoring on safety in human subjects and pharmacokinetics; conditions: for Score (PK): peak plasma concentration vs IC50
Source text: Hits from the ReFrame library were further selected based on safety, preferably oral administration (high score if oral), and potential availability for widespread use.

[7] = stage V gametocytes NF54, 24 h, dose-response analysis, N/A = not active in dose-response analysis
[8] = read-out: Cellular cytotoxicity assay IC50, HEK293T, 72 h, first value of cell, ref previously published reports (Table S1 legend)
[9] = read-out: Cellular cytotoxicity assay IC50, HepG2, 72 h, second value of cell, ref previously published reports (Table S1 legend)
[10] = Plasmodium falciparum, NF54, 24 h

Structure (SMILES)	IC50 [1] [nM]	IC50 [2] [nM]	IC50 [3] [nM]	IC50 [4] [nM]	IC50 [5, 7] [nM]	IC50 [2, 8] [nM]	IC50 [3, 9] [nM]	Score (safety) ([6]; human)	Score (PK) [6]	IC50 [5, 10] [nM]	Score (safety) [6]	IC50 [1, 10] [nM]
CC1=C(C)C(=O)C(CCCCCCCCCC[P+](c2ccccc2)(c2ccccc2)c2ccccc2)=CC1=O [SkQ1]	3850	778	3130	1050	1900	–	–	–	–	–	–	–
C[C@H]1O[C@@H](O[C@H]2[C@@H](O)C[C@H](O[C@H]3[C@@H](O)C[C@H](O[C@H]4CC[C@@]5(C)[C@H](CC[C@@H]6[C@@H]5CC[C@]5(C)[C@@H](C7=CC(=O)OC7)CC[C@]65O)C4)O[C@@H]3C)O[C@@H]2C)C[C@H](O)[C@@H]1O [Digitoxin]	–	–	–	–	–	8	11	3	0	10600	–	–
CN(C)CCOc1ccc2[nH]c(C(=O)NCC#Cc3ccc(C(=O)NO)cc3)cc2c1 [CRA-026440]	16000	81	11	63	550	–	–	–	–	–	–	–
COc1cccc2c1ccc1nc3cccc(C(=O)N[C@H](C)CN(C)C)c3nc12 [MLN 576]	–	218	413	2040	5020	–	–	–	0	–	0	–
COC1=C(OC)C(=O)C(CCCCCCCCCC[P+](c2ccccc2)(c2ccccc2)c2ccccc2)=C(C)C1=O [Mitoquinone mesylate]	–	–	–	–	–	–	–	3	1 (Peak plasma concentration lower than 1/3 IC50 (Score = 1))	12100	–	11700
COC(=O)C1=C(C)NC(C)=C(C(=O)OC)C1c1cc([N+](=O)[O-])ccc1OCCCCNCC(O)COc1ccccc1 (stereo not shown) [YM 161514]	5550	–	3970	2260	3600	–	–	–	0	–	0	–
O=C(NCCN1CCCC1)c1cc(-c2ccc(CN3CCOCC3)cc2)nc2ccc(F)cc12 [DDD498]	–	–	–	4	–	–	–	–	0	2600	0	1700
CCCCC(CC)CNC(=N)NC(=N)NCCCCCCNC(=N)NC(=N)NCC(CC)CCCC (stereo not shown) [Alexidine dihydrochloride]	–	–	–	32	–	3330	3060	–	–	550	–	41000
CC(=O)OC[C@H]1O[C@@H]([S-])[C@H](OC(C)=O)[C@@H](OC(C)=O)[C@@H]1OC(C)=O.CCP(CC)CC.[Au+] [Auranofin]	2580	–	–	–	3500	–	–	–	0	–	0	–
CO[C@H]1C[C@H](O[C@H]2CC[C@]3(C=O)[C@H]4CC[C@]5(C)[C@@H](C6=CC(=O)OC6)CC[C@]5(O)[C@@H]4CC[C@]3(O)C2)O[C@H](C)[C@H]1O [Cymarine]	–	–	–	9950	–	71	102	0	0	330	–	–
CC1CCC(C(C)C)C(OC(=O)C[N+](C)(C)CCCCCCCCCC[N+](C)(C)CC(=O)OC2CC(C)CCC2C(C)C)C1 (stereo not shown) [Decamethoxine]	8100	3300	4300	61	1000	–	–	–	–	–	–	–
Cc1nc2c(s1)C(O)=C/C(=N\CCN(C)C)C2=O [BN-82685]	–	–	–	1740	–	2920	1890	–	–	4600	–	2800

— publication PMC10082216 (Nature Communications, 2023)
